Reference: patent publication US20080171764A1, “METHODS FOR PREVENTING, MANAGING, AND REVERSING DISEASE CAUSED BY INFLAMMATION MEDIATED VASCULAR LESIONS” (priority 2007, published 2008)

Columns and labels:
[1] = test system: apoE−/− mice; experiment: abdominal aortic adventitia lesion / AAA analysis (incidence, severity, diameter); assay type: in vivo
Source text: (§1) ApoE^−/− mice (backcrossed ten times to the C57BL/6 background) were purchased from The Jackson Laboratory. The mice were kept on a twelve-hour light/twelve-hour dark regimen upon arrival. All animal experiments were approved by the IACUC of the Consumer & Personal Product Worldwide, in accordance with AAALAC guidelines. Eight week old, male apoE^−/− mice were fed a normal mouse-chow diet (RP5001; PMI Feeds Inc., St. Louis, Mo.) and acclimated for one week before switching to a pro-atherogenic high fat, high cholesterol, diet (“Western diet”, 21% fat, 0.2% cholesterol, diet No. 88137, Harlan-Teklad, Madison, Wis.) for four weeks.
Upon initiation of the pro-atherogenic diet, Alzet osmotic mini-pumps (Model 2004; ALZA Scientific Products, Mountain View, Calif.) were implanted into the apoE^−/− mice subcutaneously. The mini-pumps were loaded with angII (EMD Biosciences, San Diego, Calif.) at the delivery rate of 1,000 ng/min/kg for twenty-eight days. The mice were anesthetized using isoflurane for the implantation of the mini-pumps. Small incisions in the lower back of the neck were made and the mini-pumps were inserted into the subcutaneous space of the mice. The incisions were then closed using sterile staplers. Triple antibiotic ointment was applied to each incision post surgery. The mice on the high fat, high cholesterol diet were sacrificed by CO2 inhalation twenty-eight days post mini-pump implantation as is explained in detail subsequently. […]
The abdominal aorta was subjected to abdominal aortic adventitia lesion analysis. […] Classification of the adventitia lesions was determined according to the scale based on the gross appearance of the aorta reported by Daugherty et al. Briefly, I: Dilated lumen in the supra-renal region of the aorta with no thrombus; II: Remodeled tissue in the supra-renal region that frequently contains thrombus; III: A pronounced bulbous form of type II that contains thrombus; IV: A form in which there are multiple adventitia lesions containing thrombus, some overlapping, in the suprarenal area of the aorta.

[2] = test system: apoE−/− mice; experiment: second study: established lesions, 8 weeks angII infusion and proatherogenic diet, en face analysis; assay type: in vivo; conditions: 1.0 mg/kg ip once daily for last 4 of 8 weeks; vehicle 37.6±2.7%, P<0.0001
Description: As stated above, the mice were sacrificed by CO2 inhalation and bled from the abdominal vena cava. The aortas were perfusion-fixed and post-fixed in 4 percent paraformaldehyde. Atherosclerosis quantitation was assessed using two independent methods: “en face” surface lesion analysis and aortic root analysis. The aortic arch and thoracic aorta (defined as above the last inter-costal artery) was subjected to “en face” analysis. Briefly, the aorta with major branches (left common carotid artery, right common carotid artery, left subclavian artery) was opened up. The lipid deposition in the inner aortic wall was stained in Sudan IV buffer. […] The extent of atherosclerosis is expressed as the percent of the aortic surface area covered by lesions. Aortic root analysis provided a second method verifying atherosclerosis quantitation. Briefly, alternate 8-μm frozen sections covering 300 μm of the proximal aorta, starting at the aortic sinus, were stained for atherosclerotic lesions with oil red O. Images of oil red O-stained aortic root sections were captured and analyzed using Image-Pro 6.0 analysis software. All samples were coded by one investigator and analyzed by another investigator who is completely blinded to the codes. […]

[3] = plasma lipids (total cholesterol, triglycerides, LDL and HDL cholesterol); assay type: in vivo, mice
Source text: as §1
Upon initiation of the pro-atherogenic diet, Alzet osmotic mini-pumps (Model 2004; ALZA Scientific Products, Mountain View, Calif.) were implanted into the apoE^−/− mice subcutaneously. The mini-pumps were loaded with angII (EMD Biosciences, San Diego, Calif.) at the delivery rate of 1,000 ng/min/kg for twenty-eight days. The mice were anesthetized using isoflurane for the implantation of the mini-pumps. […]
Plasma triglyceride and total cholesterol levels were determined via an automated enzymatic technique (Equal Diagnostic Inc., Exton, Pa.). […] Aliquots of mouse plasma (100 μl) were injected onto the column, separated with a buffer containing 0.15 M NaCl, 0.01 M Na2HPO4, and 0.1 mM EDTA (pH 7.5) at a flow rate of 0.5 mL/min, and analyzed for lipids.

[4] = test system: apoE−/− mice; experiment: health status, body weight and re-suturing incidence post mini-pump surgery; assay type: in vivo
Source text: as §1
Upon initiation of the pro-atherogenic diet, Alzet osmotic mini-pumps (Model 2004; ALZA Scientific Products, Mountain View, Calif.) were implanted into the apoE^−/− mice subcutaneously. The mini-pumps were loaded with angII (EMD Biosciences, San Diego, Calif.) at the delivery rate of 1,000 ng/min/kg for twenty-eight days. The mice were anesthetized using isoflurane for the implantation of the mini-pumps. Small incisions in the lower back of the neck were made and the mini-pumps were inserted into the subcutaneous space of the mice. The incisions were then closed using sterile staplers. Triple antibiotic ointment was applied to each incision post surgery. The mice on the high fat, high cholesterol diet were sacrificed by CO2 inhalation twenty-eight days post mini-pump implantation as is explained in detail subsequently.
(§2) Upon initiation of the pro-atherogenic diet and osmotic mini-pump implantation, mice were randomly assigned to four groups; namely, vehicle control, rapamycin or sirolimus 0.5 mg/kg, sirolimus 1.0 mg/kg and sirolimus 4.0 mg/kg body weight. The defined amount of sirolimus was dissolved in ethanol, brought up in a vehicle comprising 0.2 percent Sodium carboxymethylcellulose and 0.25 percent tween 80) and administrated to mice (i.p., daily).
The data is depicted as re-suturing incedince post surgery per group size. A clear increase of the suture index is observed in response to sirolimus administration in a dose dependent manner.

[5] = sirolimus whole blood pharmacokinetics in apoE-/- mice (LC-MS/MS); assay type: in vivo; conditions: i.p. daily, 0.5, 1.0 and 4.0 mg/kg
Description: as §2
Sirolimus was quantitated using liquid-liquid extraction and reverse-phase liquid chromatography mass spectrometry (LC-MS/MS). Briefly, 100 μl of mouse whole blood sample underwent protein precipitation with 5 percent Methanol/Zinc sulfate solution containing the internal standard ascomycin. After centrifugation of the resulting solution, the liquid mixture proceeded with liquid-liquid extraction with 1-chlorobutane. The combined organic extract was then blown down to dryness and reconstituted with 50:50 Methanol:20 mM ammonium acetate solution. The samples were analyzed on API-5000 using C18 reverse-phase chromatography in Multiple Reaction Monitoring (MRM) mode using atmospheric pressure chemical ionization (ApCI) approach. The calibration standard curve results for sirolimus in mouse whole blood were acceptable from 0.5 ng/ml to 10,000 ng/ml with correlation coefficient of 0.998. […]

[6] = test system: apoE−/− mice; experiment: atherosclerosis quantitation, en face surface lesion analysis (Sudan IV), 4-week study; assay type: in vivo; conditions: 1.0 mg/kg ip once daily, vehicle 12.9±1.8%, P<0.0005
Source text: ApoE^−/− mice (backcrossed ten times to the C57BL/6 background) were purchased from The Jackson Laboratory. The mice were kept on a twelve-hour light/twelve-hour dark regimen upon arrival. All animal experiments were approved by the IACUC of the Consumer & Personal Product Worldwide, in accordance with AAALAC guidelines. Eight week old, male apoE^−/− mice were fed a normal mouse-chow diet (RP5001; PMI Feeds Inc., St. Louis, Mo.) and acclimated for one week before switching to a pro-atherogenic high fat, high cholesterol, diet (“Western diet”, 21% fat, 0.2% cholesterol, diet No. 88137, Harlan-Teklad, Madison, Wis.) for four weeks. […]
As stated above, the mice were sacrificed by CO2 inhalation and bled from the abdominal vena cava. […] Atherosclerosis quantitation was assessed using two independent methods: “en face” surface lesion analysis and aortic root analysis. […] The extent of atherosclerosis is expressed as the percent of the aortic surface area covered by lesions. Aortic root analysis provided a second method verifying atherosclerosis quantitation. Briefly, alternate 8-μm frozen sections covering 300 μm of the proximal aorta, starting at the aortic sinus, were stained for atherosclerotic lesions with oil red O. Images of oil red O-stained aortic root sections were captured and analyzed using Image-Pro 6.0 analysis software. […]

Compound: CO[C@H]1C[C@@H]2CC[C@@H](C)[C@@](O)(O2)C(=O)C(=O)N2CCCC[C@H]2C(=O)O[C@H]([C@H](C)C[C@@H]2CC[C@@H](O)[C@H](OC)C2)CC(=O)[C@H](C)/C=C(\C)[C@@H](O)[C@@H](OC)C(=O)[C@H](C)C[C@H](C)/C=C/C=C/C=C/1C [sirolimus]
- incidence of abdominal aortic adventitia lesion ([1]; 1 of 22 mice receiving sirolimus, vehicle control 30 percent (3 of 10)): 4.5%
- severity of AAA as determined by aortic diameter ([1]; vehicle 1.38±0.25 mm, P<0.005): 0.74±0.02 mm
- incidence of AAA ([1]; vehicle 32%, P<0.005): 0%
- atherosclerotic plaque area (en face analysis) of established lesions at 8 weeks [2]: 18.4±2.3%
- elevation of LDL cholesterol ([3]; all sirolimus treated mice vs vehicle control): > 60%
- plasma triglyceride ([3]; regardless of the dosage employed): trend of elevated triglyceride
- incidence of re-suturing post surgery for mini-pump implantation (wound healing) ([4]; 0.5, 1.0 and 4.0 mg/kg i.p. daily): increased incidence of re-suturing
- body weight ([4]; all 3 sirolimus treated groups vs vehicle control): trend of decreased body weight
- health status ([4]; apoE−/− mice, i.p. daily, 0.5, 1.0 and 4.0 mg/kg, 4 weeks): not overtly affected
- time of peak whole blood drug level post injection [5]: 1 h
- whole blood drug level at 24 hours ([5]; 24 hours post injection): trace level
- atherosclerotic plaque area (en face analysis) at 4 weeks [6]: 3.1±0.4%
